pEC50: −log10 of the molar value. Structures can show the parent of a compound that is named as a salt. Where two headings read alike, the source gives them in different places. Where a SMILES comes first, the peptide text is derived from it. The star is where a group is joined. Exatecan = CC[C@@]1(O)C(=O)OCc2c1cc1n(c2=O)Cc2c-1nc1cc(F)c(C)c3c1c2[C@@H](N*)CC3; Acetyl(cyclooct-2-yn-1-ylO) = O=C(COC1C#CCCCCC1)*
Legend:
[1] = test system: HCT-15; assay: HCT-15 data of payloads and linker-payloads (EC50, with or without verapamil); type: cell-based
[2] = test system: SK-BR-3 cells; assay: In vitro cytotoxicity assay in SK-BR-3 cells (CellTiter-Glo 2.0); type: cell-based, human; conditions: for pEC50: Homo sapiens
Method: To test the ability of anti-Her2 drug conjugates (ADCs) of the present disclosure (see Table 5) to kill human cell lines, an in vitro cytotoxicity assay was performed. In vitro cytotoxicity of the ADCs, isotype control ADCs, and reference free payloads were evaluated using the CellTiter-Glo 2.0 Assay Kit (Promega, Cat #G9243), in which the quantity of ATP present is used to determine the number of viable cells in culture.
The last well in each dilution series (untreated wells) served as blank controls containing only the media (ADCs) or media plus 0.2% DMSO (payloads) and was plotted as a continuation of the 3-fold serial dilution. Six days later, 100 μL of CellTiter Glo 2.0 was added to each well, plates were mixed for 2 minutes on an orbital shaker, and plates were incubated at room temperature for 10 minutes. Relative light units (RLUs) were measured on an Envision luminometer (PerkinElmer), and cell viability was expressed as a percentage of the untreated (100% viable) cells. IC50 values were determined using a four-parameter logistic equation over a 10-point dose response curve (GraphPad Prism). The maximum % kill was also determined for each test article as follows: 100−minimum percent viability.

[3] = Homo sapiens, linker-payload, HCT-15 cells, read-out: HCT-15 EC50
[4] = Homo sapiens, payload, HCT-15 cells, no verapamil, read-out: HCT-15 EC50
[5] = payload, HCT-15 cells plus verapamil, read-out: HCT-15 + verapamil EC50

Compound	pEC50 [1, 3]	pEC50 [1, 4]	pEC50 [1, 5]	other results
CC[C@@]1(O)C(=O)OCc2c1cc1n(c2=O)Cc2c-1nc1cc(F)c(C)c3c1c2[C@@H](NC(=O)CNC(=O)CNC(=O)CNC(=O)CNC(=O)COC1C#CCCCCC1)CC3 (stereo partly drawn) [LP8, 2-(2-{2-[2-(Cyclooct-2-yn-1-yloxy)acetamido]acetamido}acetamido)-N-({[(10S,23S)-10-ethyl-18-fluoro-10-hydroxy-19-methyl-5,9-dioxo-8-oxa-4,15-diazahexacyclo[14.7.1.0^2,^14.0^4,^13.0^6,^11.0^20,^24]tetracosa-1,6(11),12,14,16,18,20(24)-heptaen-23-yl]carbamoyl}methyl)acetamide] ({Acetyl(cyclooct-2-yn-1-ylO)}-GGGG-Exatecan)	6.08			
CC[C@@]1(O)C(=O)OCc2c1cc1n(c2=O)Cc2c-1nc1cc(F)c(C)c3c1c2[C@@H](NC(=O)OCc1ccc(O[C@@H]2O[C@H](CO)[C@@H](O)[C@H](O)[C@H]2O)c(C(=O)NCCOCCOCCNC(=O)CCOCC(COCCC(=O)NCCOCCOCCNC(=O)c2cc(COC(=O)N[C@H]4CCc5c(C)c(F)cc6nc7c(c4c56)Cn4c-7cc5c(c4=O)COC(=O)[C@]5(O)CC)ccc2O[C@@H]2O[C@H](CO)[C@@H](O)[C@H](O)[C@H]2O)NC(=O)CCOCCOCCNC(=O)COC2C#CCCCCC2)c1)CC3 (stereo partly shown) [LP16]	6.85			
CC[C@@]1(O)C(=O)OCc2c1cc1n(c2=O)Cc2c-1nc1cc(F)c(C)c3c1c2[C@@H](NC(=O)COCNC(=O)OCc1ccc(NC(=O)[C@H](C)NC(=O)[C@@H](NC(=O)CCOCCOCCOCCOCCNC(=O)COC2C#CCCCCC2)C(C)C)cc1)CC3 (stereo partly drawn) [LP15, {4-[(2S)-2-[(2S)-2-{1-[2-(cyclooct-2-yn-1-yloxy)acetamido]-3,6,9,12-tetraoxapentadecan-15-amido}-3-methylbutanamido]propanamido]phenyl}methyl N-[({[(10S,23S)-10-ethyl-18-fluoro-10-hydroxy-19-methyl-5,9-dioxo-8-oxa-4,15-diazahexacyclo[14.7.1.0^2,^14.0^4,^13.0^6,^11.0^20,^24]tetracosa-1,6(11),12,14,16,18,20(24)-heptaen-23-yl]carbamoyl}methoxy)methyl]carbamate]	7.01			
CC[C@@]1(O)C(=O)OCc2c1cc1n(c2=O)Cc2c-1nc1ccc(OC)cc1c2CN [P22, (19S)-10-(Aminomethyl)-19-ethyl-19-hydroxy-7-methoxy-17-oxa-3,13-diazapentacyclo[11.8.0.0^2,^11.0^4,^9.0^15,^20]henicosa-1(21),2,4,6,8,10,15(20)-heptaene-14,18-dione]		7.50	7.39	
CC[C@@]1(O)C(=O)OCc2c1cc1n(c2=O)Cc2c-1nc1ccc(OC)cc1c2CO [P20, (19S)-19-Ethyl-19-hydroxy-10-(hydroxymethyl)-7-methoxy-17-oxa-3,13-diazapentacyclo[11.8.0.0^2,^11.0^4,^9.0^15,^20]henicosa-1(21),2,4,6,8,10,15(20)-heptaene-14,18-dione]		8.43	8.62	
CC[C@@]1(O)C(=O)OCc2c1cc1n(c2=O)Cc2c-1nc1cc(F)c(C)c3c1c2[C@@H](NC(=O)[C@H](Cc1ccccc1)NC(=O)OCc1ccc(NC(=O)[C@H](CCCNC(N)=O)NC(=O)[C@@H](NC(=O)CCOCCOCCOCCOCCNC(=O)COC2C#CCCCCC2)C(C)C)cc1)CC3 (stereo partly drawn) [LP10, {4-[(2S)-5-(carbamoylamino)-2-[(2S)-2-{1-[2-(cyclooct-2-yn-1-yloxy)acetamido]-3,6,9,12-tetraoxapentadecan-15-amido}-3-methylbutanamido]pentanamido]phenyl}methyl N-[(1 S)-1-{[(10S,23S)-10-ethyl-18-fluoro-10-hydroxy-19-methyl-5,9-dioxo-8-oxa-4,15-diazahexacyclo[14.7.1.0^2,^14.0^4,^13.0^6,^11.0^20,^24]tetracosa-1,6(11),12,14,16,18,20(24)-heptaen-23-yl]carbamoyl}-2-phenylethyl]carbamate]	6.07			
CC[C@@](O)(C(=O)NCCN)c1cc2n(c(=O)c1COC(C)=O)Cc1c-2nc2cc(F)c(C)c3c2c1[C@@H](NC(=O)COC(C)=O)CC3 [P13, {[(19S)-6-[(Acetyloxy)methyl]-7-[(1 S)-1-[(2-aminoethyl)carbamoyl]-1-hydroxypropyl]-14-fluoro-15-methyl-5-oxo-4,11-diazapentacyclo[10.7.1.0^2,^10.0^4,^9.0^16,^20]icosa-1,6,8,10,12,14,16(20)-heptaen-19-yl]carbamoyl}methyl acetate]		6.87		
CC[C@@]1(O)C(=O)OCc2c1cc1n(c2=O)Cc2c-1nc1cc(F)c(C)c3c1c2[C@@H](NC(=O)[C@@H](N)CCCCN)CC3 [P4, (2S)-2,6-diamino-N-[(10S,23S)-10-ethyl-18-fluoro-10-hydroxy-19-methyl-5,9-dioxo-8-oxa-4,15-diazahexacyclo[[14.7.1.0^2,^14.0^4,^13.0^6,^11.0^20,^24]]tetracosa-1,6(11),12,14,16,18,20(24)-heptaen-23-yl]hexanamide]		6.35	6.24	
CC[C@@]1(O)C(=O)OCc2c1cc1n(c2=O)Cc2c-1nc1cc(F)c(C)c3c1c2[C@@H](NC(=O)OCc1ccc(O[C@@H]2O[C@H](CO)[C@@H](O)[C@H](O)[C@H]2O)c(C(=O)NCCNC(=O)COC2C#CCCCCC2)c1)CC3 (stereo partly drawn) [LP4, [3-({2-[2-(Cyclooct-2-yn-1-yloxy)acetamido]ethyl}carbamoyl)-4-{[(2S,3R,4S,5S,6R)-3,4,5-trihydroxy-6-(hydroxymethyl)oxan-2-yl]oxy}phenyl]methyl N-[(10S,23S)-10-ethyl-18-fluoro-10-hydroxy-19-methyl-5,9-dioxo-8-oxa-4,15-diazahexacyclo[14.7.1.0^2,^14.0^4,^13.0^6,^11.0^20,^24]tetracosa-1,6(11),12,14,16,18,20(24)-heptaen-23-yl]carbamate]	6.44			
CCc1c2c(nc3ccc(O)cc13)-c1cc3c(c(=O)n1C2)COC(=O)[C@]3(O)CC [P16, 7-ethyl-10-hydroxycamptothecin, reference compound]		8.21	8.32	
CC[C@@]1(O)C(=O)OCc2c1cc1n(c2=O)Cc2c-1nc1ccccc1c2CCN(CCO)C(C)C [P10, (19S)-19-ethyl-19-hydroxy-10-{2-[(2-hydroxyethyl)(propan-2-yl)amino]ethyl}-17-oxa-3,13-diazapentacyclo[11.8.0.0^2,^11.0^4,^9.0^15,^20]henicosa-1(21),2,4,6,8,10,15(20)-heptaene-14,18-dione]		8.07	8.36	
CC[C@@]1(O)C(=O)OCc2c1cc1n(c2=O)Cc2c-1nc1cc(F)c(C)c3c1c2[C@@H](N)CC3 [P1, Exatecan mesylate, reference compound]		8.91	8.95	
CC[C@@]1(O)C(=O)OCc2c1cc1n(c2=O)Cc2c-1nc1cc(F)c(C)c3c1c2[C@@H](NC(=O)OCc1ccc(NC(=O)[C@H](CCCNC(N)=O)NC(=O)[C@@H](NC(=O)CCOCCOCCOCCOCCNC(=O)COC2C#CCCCCC2)C(C)C)cc1)CC3 (stereo partly drawn) [LP1, {4-[(2S)-5-(Carbamoylamino)-2-[(2S)-2-{1-[2-(cyclooct-2-yn-1-yloxy)acetamido]-3,6,9,12-tetraoxapentadecan-15-amido}-3-methylbutanamido]pentanamido]phenyl}methyl N-[(10S,23S)-10-ethyl-18-fluoro-10-hydroxy-19-methyl-5,9-dioxo-8-oxa-4,15-diazahexacyclo[14.7.1.0^2,^14.0^4,^13.0^6,^11.0^20,^24]tetracosa-1,6(11),12,14,16,18,20(24)-heptaen-23-yl]carbamate]	6.54			
CC[C@@]1(O)C(=O)OCc2c1cc1n(c2=O)Cc2c-1nc1cc(F)c(C)c3c1c2[C@@H](N)CC3 [Exatecan]				pEC50 ([2]; 144 h, Table 8, SK-BR-3, six days, concentrations corrected for DAR (effective payload concentration), read-out: SKBR3 EC50): 9.29; pEC50 ([2]; SK-BR-3 cells, read-out: EC50 value): 9.29; maximum % kill ([2]; SK-BR-3 cells, 100 − minimum percent viability): ~95%
CC[C@@]1(O)C(=O)OCc2c1cc1n(c2=O)Cc2cc3cc(OC)ccc3nc2-1 [P15, (19S)-19-Ethyl-19-hydroxy-7-methoxy-17-oxa-3,13-diazapentacyclo[11.8.0.0^2,^11.0^4,^9.0^15,^20]henicosa-1(21),2,4,6,8,10,15(20)-heptaene-14,18-dione]		8.16	8.35	
CC[C@@]1(O)C(=O)OCc2c1cc1n(c2=O)Cc2c-1nc1ccccc1c2CCNC(C)C [P8, Belotecan HCl salt, reference compound]			8.51	pEC50 ([1]; payload, HCT-15 cells, no verapamil, read-out: HCT-15 EC50): 7.70
CC[C@@]1(O)C(=O)OCc2c1cc1n(c2=O)Cc2cc3cc(O)ccc3nc2-1 [P14, 10-hydroxy camptothecin, reference compound]		7.94	8.17	
